# Assay results as given in patent US20120164226A1, “Compositions and Methods for Improving Prognosis of a Human with Subarachnoid Hemorrhage” (priority 2007, published 2012).
# Experiments:
# [1] = test system: Subarachnoid Hemorrhage (SAH) Dog Model; assay: Study 2: angiographic vasospasm (basilar artery diameter) in SAH dog model; format: in vivo; conditions: oral nimodipine 0.86 mg/kg six times per day till day 21
# Method: The mixture was added to a surfactant containing aqueous solution to form an emulsion and the solvent extracted to produce the flowable microparticulate nimodipine formulation. […] The microparticulate nimodipine formulation is combined with a pharmaceutical carrier to form the pharmaceutical composition of the described invention. […] The placebo formulation contained the microparticles plus vehicle, but no nimodipine. […] (Data not shown). […] On Day 1, the dogs were weighed, baseline blood was collected and blood pressure, temperature, heart rate oxygen, and blood gases were monitored throughout the surgical procedure. Cerebral angiography was performed through one vertebral artery. Images were captured using identical exposure factors and magnification for every angiogram. An internal magnification standard was included in every angiogram. […] The needle was withdrawn immediately after the injection. […] The animal was then turned supine, the femoral catheter was removed, and the femoral artery was ligated. The incision was closed in a standard fashion. […] The angiographic data was independently analyzed by two reviewers who were blinded to the animal group. […] Individual percent vasospasm was determined for each animal for Days 8 and 15 using formula (I): Average percent vasospasm for Days 8 and 15 was also determined for each group. […]
# [2] = target: T1, R-type calcium current in the neurohypophysial nerve endings (Homo sapiens, UniProt Q15878); conditions: 40 nM concentration; cited from earlier work
# T1 construct: R-type calcium current in the neurohypophysial nerve endings at 40 nM concentration; host or cells: neurohypophysial nerve endings
# T1 sequence (Q15878 whole entry): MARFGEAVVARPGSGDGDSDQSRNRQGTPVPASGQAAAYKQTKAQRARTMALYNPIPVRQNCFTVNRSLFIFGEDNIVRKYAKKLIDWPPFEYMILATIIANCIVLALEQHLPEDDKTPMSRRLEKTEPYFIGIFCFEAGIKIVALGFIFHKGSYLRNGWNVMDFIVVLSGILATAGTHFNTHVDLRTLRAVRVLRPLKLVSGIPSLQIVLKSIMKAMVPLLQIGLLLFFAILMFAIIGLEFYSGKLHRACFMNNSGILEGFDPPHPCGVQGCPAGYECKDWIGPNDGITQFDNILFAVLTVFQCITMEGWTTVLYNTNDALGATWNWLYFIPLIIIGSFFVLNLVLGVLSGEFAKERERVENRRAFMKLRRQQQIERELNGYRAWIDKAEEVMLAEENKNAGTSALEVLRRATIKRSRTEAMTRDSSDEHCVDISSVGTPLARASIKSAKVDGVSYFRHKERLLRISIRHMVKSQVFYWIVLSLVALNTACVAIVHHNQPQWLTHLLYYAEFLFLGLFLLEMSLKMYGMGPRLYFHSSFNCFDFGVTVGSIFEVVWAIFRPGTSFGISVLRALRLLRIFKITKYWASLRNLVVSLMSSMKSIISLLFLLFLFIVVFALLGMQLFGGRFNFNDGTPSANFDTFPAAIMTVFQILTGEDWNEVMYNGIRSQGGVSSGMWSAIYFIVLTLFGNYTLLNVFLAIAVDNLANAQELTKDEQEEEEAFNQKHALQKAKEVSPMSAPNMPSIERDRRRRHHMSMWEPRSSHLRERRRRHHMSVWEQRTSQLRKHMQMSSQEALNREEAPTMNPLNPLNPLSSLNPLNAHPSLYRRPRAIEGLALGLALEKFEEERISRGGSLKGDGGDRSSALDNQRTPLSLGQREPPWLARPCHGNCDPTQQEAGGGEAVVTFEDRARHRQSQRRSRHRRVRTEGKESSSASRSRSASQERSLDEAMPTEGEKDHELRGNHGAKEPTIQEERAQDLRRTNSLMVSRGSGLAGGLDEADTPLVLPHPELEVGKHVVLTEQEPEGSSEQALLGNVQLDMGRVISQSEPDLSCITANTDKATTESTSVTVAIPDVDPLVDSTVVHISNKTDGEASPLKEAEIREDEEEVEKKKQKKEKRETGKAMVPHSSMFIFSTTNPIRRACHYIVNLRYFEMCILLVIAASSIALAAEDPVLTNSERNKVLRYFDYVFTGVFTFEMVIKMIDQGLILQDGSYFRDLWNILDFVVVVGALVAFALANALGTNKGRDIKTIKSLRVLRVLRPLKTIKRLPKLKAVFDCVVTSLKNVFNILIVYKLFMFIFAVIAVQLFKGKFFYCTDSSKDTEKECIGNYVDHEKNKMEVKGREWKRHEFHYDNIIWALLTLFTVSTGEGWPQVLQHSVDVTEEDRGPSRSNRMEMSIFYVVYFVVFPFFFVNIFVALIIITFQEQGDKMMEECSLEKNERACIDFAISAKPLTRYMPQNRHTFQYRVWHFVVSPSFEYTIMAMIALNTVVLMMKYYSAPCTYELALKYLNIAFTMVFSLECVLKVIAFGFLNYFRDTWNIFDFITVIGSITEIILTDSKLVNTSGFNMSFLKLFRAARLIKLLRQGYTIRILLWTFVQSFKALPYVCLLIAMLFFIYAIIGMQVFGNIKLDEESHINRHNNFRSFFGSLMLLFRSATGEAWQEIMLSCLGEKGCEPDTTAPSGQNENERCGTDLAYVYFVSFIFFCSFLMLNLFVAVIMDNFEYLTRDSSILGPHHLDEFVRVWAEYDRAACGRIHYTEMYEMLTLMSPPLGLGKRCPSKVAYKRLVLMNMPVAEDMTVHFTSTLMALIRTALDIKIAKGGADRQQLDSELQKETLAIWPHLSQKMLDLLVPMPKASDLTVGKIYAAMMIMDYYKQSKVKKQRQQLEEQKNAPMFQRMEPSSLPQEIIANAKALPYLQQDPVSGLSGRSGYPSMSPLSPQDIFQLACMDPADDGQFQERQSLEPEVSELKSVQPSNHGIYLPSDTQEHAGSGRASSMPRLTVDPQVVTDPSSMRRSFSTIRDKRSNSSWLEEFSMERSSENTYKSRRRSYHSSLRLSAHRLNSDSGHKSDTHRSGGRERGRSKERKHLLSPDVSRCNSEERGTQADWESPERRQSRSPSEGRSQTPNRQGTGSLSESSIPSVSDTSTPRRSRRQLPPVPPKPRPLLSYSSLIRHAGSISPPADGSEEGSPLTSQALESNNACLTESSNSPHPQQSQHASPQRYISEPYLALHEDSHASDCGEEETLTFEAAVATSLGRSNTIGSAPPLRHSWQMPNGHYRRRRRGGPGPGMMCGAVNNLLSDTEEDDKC
# N-type calcium current = N-type calcium current (Homo sapiens, UniProt Q00975); conditions: 300 nM to 500 nM; cited from earlier work
# K^+ currents = conditions: cited from earlier work
# Na^+ currents = conditions: cited from earlier work
# L-type calcium currents = conditions: cited from earlier work
# [3] = target: P/Q-type calcium currents (Homo sapiens, UniProt O00555); conditions: cited from earlier work
# Sequence of P/Q-type calcium currents (O00555 whole entry): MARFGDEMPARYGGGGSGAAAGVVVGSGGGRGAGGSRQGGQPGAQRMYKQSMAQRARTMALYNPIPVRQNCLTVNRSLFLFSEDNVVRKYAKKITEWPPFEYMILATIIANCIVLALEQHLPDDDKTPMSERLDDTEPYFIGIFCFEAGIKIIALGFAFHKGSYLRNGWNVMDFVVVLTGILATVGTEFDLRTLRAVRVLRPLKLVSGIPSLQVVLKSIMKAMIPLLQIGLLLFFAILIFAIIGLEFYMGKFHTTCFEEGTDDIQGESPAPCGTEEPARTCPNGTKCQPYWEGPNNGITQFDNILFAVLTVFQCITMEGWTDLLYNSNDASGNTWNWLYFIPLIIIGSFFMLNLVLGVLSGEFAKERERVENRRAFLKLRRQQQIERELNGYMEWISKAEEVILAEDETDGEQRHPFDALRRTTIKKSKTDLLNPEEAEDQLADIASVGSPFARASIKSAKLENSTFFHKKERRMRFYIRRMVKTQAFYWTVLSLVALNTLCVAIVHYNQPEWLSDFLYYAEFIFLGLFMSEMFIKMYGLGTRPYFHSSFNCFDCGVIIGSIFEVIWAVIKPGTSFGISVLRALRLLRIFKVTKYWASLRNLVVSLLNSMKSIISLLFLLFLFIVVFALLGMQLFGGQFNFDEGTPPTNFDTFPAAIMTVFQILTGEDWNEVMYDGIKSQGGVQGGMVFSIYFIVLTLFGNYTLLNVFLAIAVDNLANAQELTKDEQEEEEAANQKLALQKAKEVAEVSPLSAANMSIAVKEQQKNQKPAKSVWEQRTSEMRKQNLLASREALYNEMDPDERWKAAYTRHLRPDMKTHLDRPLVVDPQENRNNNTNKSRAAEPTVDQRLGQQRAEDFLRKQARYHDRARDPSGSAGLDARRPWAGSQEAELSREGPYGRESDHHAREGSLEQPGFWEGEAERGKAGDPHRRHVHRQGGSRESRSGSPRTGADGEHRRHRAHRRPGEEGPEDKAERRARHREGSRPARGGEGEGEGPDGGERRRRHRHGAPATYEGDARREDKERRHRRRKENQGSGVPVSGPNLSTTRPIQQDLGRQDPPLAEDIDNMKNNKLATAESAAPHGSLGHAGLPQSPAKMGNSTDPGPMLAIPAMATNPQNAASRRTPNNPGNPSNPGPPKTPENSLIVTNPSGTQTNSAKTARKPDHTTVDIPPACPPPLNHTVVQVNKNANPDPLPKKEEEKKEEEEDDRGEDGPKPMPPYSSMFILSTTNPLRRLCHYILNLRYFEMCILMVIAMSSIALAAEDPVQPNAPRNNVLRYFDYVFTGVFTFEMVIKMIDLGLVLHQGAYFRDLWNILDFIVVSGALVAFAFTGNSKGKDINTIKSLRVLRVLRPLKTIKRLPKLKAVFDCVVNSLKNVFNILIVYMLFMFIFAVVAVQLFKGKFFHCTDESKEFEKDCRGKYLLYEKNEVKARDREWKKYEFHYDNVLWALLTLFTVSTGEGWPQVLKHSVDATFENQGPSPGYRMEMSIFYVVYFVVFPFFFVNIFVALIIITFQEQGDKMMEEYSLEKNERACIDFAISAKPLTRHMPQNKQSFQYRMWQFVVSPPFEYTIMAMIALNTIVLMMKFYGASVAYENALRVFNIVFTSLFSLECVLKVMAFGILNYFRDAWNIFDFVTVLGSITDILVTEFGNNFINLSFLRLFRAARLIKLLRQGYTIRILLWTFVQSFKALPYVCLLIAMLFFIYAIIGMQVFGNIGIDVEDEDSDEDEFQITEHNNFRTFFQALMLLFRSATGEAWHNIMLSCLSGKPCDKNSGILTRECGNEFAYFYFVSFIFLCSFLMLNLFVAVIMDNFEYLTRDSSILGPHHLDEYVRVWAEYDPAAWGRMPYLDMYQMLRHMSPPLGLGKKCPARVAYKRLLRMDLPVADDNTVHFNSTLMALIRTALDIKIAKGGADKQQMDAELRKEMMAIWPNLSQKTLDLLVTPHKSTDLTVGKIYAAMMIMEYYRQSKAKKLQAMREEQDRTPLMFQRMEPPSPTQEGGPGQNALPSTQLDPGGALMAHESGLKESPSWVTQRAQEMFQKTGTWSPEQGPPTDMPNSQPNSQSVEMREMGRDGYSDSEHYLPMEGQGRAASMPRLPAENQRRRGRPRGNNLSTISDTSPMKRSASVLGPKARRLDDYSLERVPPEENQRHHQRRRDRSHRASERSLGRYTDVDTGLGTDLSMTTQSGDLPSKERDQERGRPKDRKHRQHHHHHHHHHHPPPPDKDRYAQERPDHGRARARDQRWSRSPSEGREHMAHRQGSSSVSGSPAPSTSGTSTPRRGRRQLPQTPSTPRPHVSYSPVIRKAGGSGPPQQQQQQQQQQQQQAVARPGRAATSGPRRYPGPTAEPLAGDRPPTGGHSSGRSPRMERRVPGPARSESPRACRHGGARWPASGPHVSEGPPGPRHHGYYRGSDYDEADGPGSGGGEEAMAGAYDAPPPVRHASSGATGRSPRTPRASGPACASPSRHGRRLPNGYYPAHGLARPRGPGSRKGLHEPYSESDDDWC
# T-type calcium currents = conditions: cited from earlier work
# [4] = test system: R-type current in preparations of the neuronal cell body, retinal ganglion cells and hippocampal pyramidal cells; conditions: cited from earlier work
Molecule,"percent vasospasm (% change in mean basilar artery diameter from baseline), Mean ([1]; Day 8) [%]","percent vasospasm (% change in mean basilar artery diameter from baseline), Mean ([1]; Day 15) [%]",block of R-type calcium current [2],N-type calcium current blocked (N-type calcium current),effect on K+ currents (K^+ currents),effect on Na+ currents (Na^+ currents),effect on L-type calcium currents (L-type calcium currents),effect on P/Q-type calcium currents [3],effect on T-type calcium currents (T-type calcium currents),effect on R-type current [4]
"COCCOC(=O)C1=C(C)NC(C)=C(C(=O)OC(C)C)C1c1cccc([N+](=O)[O-])c1 (stereo not shown) [Control, nimodipine]",−27.89,−11.67,–,–,–,–,–,–,–,–
SNX-482,–,–,blocks,30-50%,no effect,no effect,no effect,no effect,no effect,no significant effect
